# Literature values as cited in PMC8091910 (Proteins, 2019).
# Assays:
# [1] = test system: EME1
# [2] = test system: MUS81–EME1 complex
# [3] = test system: pancreatic cancer cell (RWP1); conditions: human peptide library screen
# [4] = test system: cancer cell lines
sequence,measurement,setting,value
RTLSQLYCSYGPLT [C-terminal MUS81 peptide],binding to EME1,[1],binds to EME1
same,disruption / inhibition of MUS81–EME1 complex,[2],disrupting the MUS81–EME1 complex
same,reduction of cell viability,[3],significantly reduced cell viability
same,reduction of cell viability in cancer cell lines,[4],reducing cell viability in cancer cell lines
